Assay results from publication doi:10.1101/2024.10.10.617599v1 (biorxiv, 2024).
Counter-ions that a name gives are not always drawn.

Tests used:
[1] = target: hP2Y12R (Homo sapiens, UniProt Q9H244); experiment: radioligand displacement of [3H]AZ12464237; format: binding
[2] = target: T1, rP2Y12R (Rattus norvegicus, UniProt Q9EPX4); experiment: radioligand displacement of [3H]AZ12464237; format: binding
[3] = target: T1, rP2Y12R; experiment: radioligand saturation binding, HEK […] membranes

T1 sequence (Q9EPX4 whole entry): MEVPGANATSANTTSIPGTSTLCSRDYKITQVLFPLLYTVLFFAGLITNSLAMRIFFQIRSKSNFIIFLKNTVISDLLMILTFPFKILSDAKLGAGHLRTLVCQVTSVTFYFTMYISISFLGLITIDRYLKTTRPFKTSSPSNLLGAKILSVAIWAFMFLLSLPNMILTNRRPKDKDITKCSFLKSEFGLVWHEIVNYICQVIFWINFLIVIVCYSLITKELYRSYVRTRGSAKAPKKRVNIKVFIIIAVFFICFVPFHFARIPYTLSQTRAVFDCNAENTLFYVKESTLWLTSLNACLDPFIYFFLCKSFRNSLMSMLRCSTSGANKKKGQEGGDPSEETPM
Chain of hP2Y12R (Q9H244 whole entry): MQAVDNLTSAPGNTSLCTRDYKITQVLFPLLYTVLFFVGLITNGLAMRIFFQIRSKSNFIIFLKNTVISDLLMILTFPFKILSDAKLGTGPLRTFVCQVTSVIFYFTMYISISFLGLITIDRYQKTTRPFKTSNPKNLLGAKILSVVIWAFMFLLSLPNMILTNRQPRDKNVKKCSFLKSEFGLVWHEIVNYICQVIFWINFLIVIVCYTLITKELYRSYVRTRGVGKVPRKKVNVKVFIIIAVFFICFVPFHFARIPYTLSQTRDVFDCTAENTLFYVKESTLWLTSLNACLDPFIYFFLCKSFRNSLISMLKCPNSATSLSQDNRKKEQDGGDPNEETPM

SMILES | Ki [1] [nM] | Ki [2] [nM] | Kd [3] [nM]
CCOC(=O)c1cc(C#N)c(N2CCC(C(=O)NS(=O)(=O)Cc3ccccc3)CC2)nc1C [AZD1283, Ethyl 5-cyano-2-methyl-6-[4-[[[(phenylmethyl)sulfonyl]amino]carbonyl]-1-piperidinyl]-3-pyridinecarboxylate] | 2.66 ± 0.6 | – | –
Nc1c(S(=O)(=O)O)cc(Nc2ccc(Nc3ccccc3)c(S(=O)(=O)O)c2)c2c1C(=O)c1ccccc1C2=O [PSB0739] | 25.6 ± 3.05 | – | –
S=C=Nc1cccc(NC(=S)NCCCCNC(=S)Nc2cccc(N=C=S)c2)c1 [MRS2578] | > 100000 | – | –
CCCSc1nc(N[C@@H]2C[C@H]2c2ccc(F)c(F)c2)c2nnn([C@@H]3C[C@H](OCCO)[C@@H](O)[C@H]3O)c2n1 [ticagrelor] | 20.1 ± 0.25 | 48.8 ± 15.2 | –
CSc1nc(N)c2ncn([C@@H]3O[C@H](COP(=O)(O)OP(=O)(O)O)[C@@H](O)[C@H]3O)c2n1 [2MeSADP, 2-methylthio-adenosine-5’-diphosphate] | 18.9 ± 2.61 | – | –
CNc1cc2[nH]c(=O)n(-c3ccc(NC(=O)NS(=O)(=O)c4ccc(Cl)s4)cc3)c(=O)c2cc1F [elinogrel, 5-chloro-N-[[[4-[6-Fluoro-1,4-dihydro-7-(methylamino)-2,4-dioxo-3(2H)-quinazolinyl]phenyl]amino]carbonyl]-2-thiophenesulfonamide] | 7 ± 0.54 | 55 ± 14.3 | –
CCOC(=O)c1cc(C#N)c(N2CC(NC(=O)NS(=O)(=O)c3ccc(Cl)s3)C2)nc1C [AZ12464237, Ethyl 6-(3-(3-((5-chlorothiophen-2-yl)sulfonyl)ureido)azetidin-1-yl)-5-cyano-2-methylnicotinate] | – | – | 16.6 ± 3.37
O=C(O)c1cc(-c2ccc(C3CCNCC3)cc2)c2ccc(-c3ccc(C(F)(F)F)cc3)cc2c1 [PPTN·HCl, 4-[4-(4-piperidinyl)phenyl]-7-[4-(trifluoromethyl)phenyl]-2-naphthalenecarboxylic acid hydrochloride] | > 10000 | – | –
Cc1nc(N=Nc2cc([N+](=O)[O-])ccc2Cl)c(COP(=O)(O)O)c(C=O)c1O [MRS2211, 2-[(2-chloro-5-nitrophenyl)azo]-5-hydroxy-6-methyl-3-[(phosphonooxy)methyl]-4-pyridinecarboxaldehyde disodium salt] | 3240 ± 1850 | – | –
